Measured values from US20110098309A1, “METHODS OF INHIBITING THE FORMATION OF AMYLOID-BETA DIFFUSABLE LIGANDS USING ACYLHYDRAZIDE COMPOUNDS” (priority 2007, published 2011).

Each compound was assayed against Aβ1-42 (Homo sapiens, UniProt P05067) (assay: FRET assay of Aβ1-42 oligomer (ADDL) assembly inhibition). Conditions: 0.2 μM FITC-Aβ(1-42) and 0.8 μM Aβ(1-42), 37° C., six concentrations from about 10 μM to about 0.03 μM.
Format: biochemical
Source text: Fluorescence (or Förster) Resonance Energy Transfer (FRET) is a distance-dependent, non-radiative transfer of energy in which the de-excitation of one fluorophore (donor) is coupled to excitation of another fluorophore (acceptor). FRET occurs if (1) the quantum of energy emitted by a donor fluorophore corresponds to an acceptor fluorophore's excitation energy, (2) the orientations of donor and acceptor transition dipoles are nearly parallel and (3) the donor fluorescent emission spectrum overlaps the acceptor absorption spectrum.
In this assay, assembly of Aβ1-42 oligomer formation is monitored by FRET using N-terminal conjugates of fluorescein-Aβ1-42 as both the donor and acceptor fluorophore (fluorescein-fluorescein Ro˜45 Å). […] Inhibition of Aβ1-42 assembly is observed as the absence or attenuation of fluorescein quenching.
FRET and FP assays are performed in 384-well Corning Non-Binding Surface, black, opaque microtiter plates, and the assay buffer consists of 25 mM MOPS-Tris (pH 8.0) with 100 mM MgCl2. The assay volume, containing 0.2 μM FITC-Aβ(1-42) and 0.8 μM Aβ(1-42), is 50 μl and the temperature is 37° C. […] Kinetic traces are collected by recording fluorescence intensity and polarization readings every five minutes over about a three hour time course. […] Positive control reactions contain all buffer components in the absence of added small molecule or antibody reagents. To test for ADDL assembly inhibition, the compound was incubated with the peptide mixture at six concentrations from about 10 μM decreasing to about 0.03 μM.

Chain of Aβ1-42 (P05067 672-713 limits assumed): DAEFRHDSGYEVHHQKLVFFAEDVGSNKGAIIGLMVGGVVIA

Compound	IC50 [µM]
C/C(CC(=O)c1ccco1)=N\NC(=O)c1sc2cc(F)ccc2c1Cl [Compound 4, 3-chloro-6-fluoro-N′-(4-(furan-2-yl)-4-oxobutan-2-ylidene)benzo[b]-thiophene-2-carbohydrazide]	5.9
CS(=O)(=O)Nc1ccccc1C(=O)N/N=C(/CC(=O)c1cccs1)C(F)(F)F [Compound 5, N-(2-(2-(1,1,1-trifluoro-4-oxo-4-(thiophen-2-yl)butan-2-ylidene)hydrazine-carbonyl)phenyl)methanesulfonamide]	6
O=C(C/C(=N/NC(=O)c1ccccc1O)C(F)(F)F)c1cc2ccccc2s1 [Compound 8, N′-(4-(benzo[b]thiophen-2-yl)-1,1,1-trifluoro-4-oxobutan-2-ylidene)-2-hydroxy benzohydrazide]	7.7
Cn1nccc1C(=O)C/C(=N/NC(=O)c1ccccc1O)C(F)(F)F [Compound 9, 2-hydroxy-N′-(1,1,1-trifluoro-4-(1-methyl-1H-pyrazol-5-yl)-4-oxobutan-2-ylidene) benzohydrazide]	8.2
Cc1nnsc1C(=O)N/N=C(/CC(=O)c1cccs1)C(F)(F)F [Compound 11, 4-methyl-N′-(1,1,1-trifluoro-4-oxo-4-(thiophen-2-yl)butan-2-ylidene)-1,2,3-thiadiazole-5-carbohydrazide]	8.4
CC(C)(C)C(=O)C/C(=N/NC(=O)c1sc2cc(F)ccc2c1Cl)C(F)(F)F [Compound 12, 3-chloro-6-fluoro-N′-(1,1,1-trifluoro-5,5-dimethyl-4-oxohexan-2-ylidene)benzo[b]thiophene-2-carbohydrazide]	8.6
O=C(C/C(=N/NC(=O)c1ccccc1NS(=O)(=O)c1ccc(Cl)cc1)C(F)(F)F)c1cccs1 [Compound 16, 4-chloro-N-(2-(2-(1,1,1-trifluoro-4-oxo-4-(thiophen-2-yl)butan-2-ylidene) hydrazinecarbonyl)phenyl)benzenesulfonamide]	9.7
O=C(N/N=C(/CC(=O)N1CCOCC1)C(F)(F)F)c1ccccc1O [Compound 18, 2-hydroxy-N′-(1,1,1-trifluoro-4-morpholino-4-oxobutan-2-ylidene)benzohydrazide]	10.4
O=C(C/C(=N/NC(=O)c1cc(Cl)ccc1O)C(F)(F)F)c1cccs1 [Compound 20, 5-chloro-2-hydroxy-N′-(1,1,1-trifluoro-4-oxo-4-(thiophen-2-yl)butan-2-ylidene)benzohydrazide]	11.9
O=C(C/C(=N/NC(=O)c1cccc2cc[nH]c12)C(F)(F)F)c1cccs1 [Compound 22, N′-(1,1,1-trifluoro-4-oxo-4-(thiophen-2-yl)butan-2-ylidene)-1H-indole-7-carbohydrazide]	13.5
O=C(C/C(=N/NC(=O)c1sc2cc(F)ccc2c1Cl)C(F)(F)F)c1ccc(Cl)s1 [Compound 23, 3-chloro-N′-(4-(5-chlorothiophen-2-yl)-1,1,1-trifluoro-4-oxobulan-2-ylidene)-6-fluorobenzo[b]thiophene-2-carbohydrazide]	16
O=C(N/N=C(/CC(=O)c1cccs1)C(F)(F)F)c1ccc(Br)cc1 [Compound 27, 4-bromo-N′-(1,1,1-trifluoro-4-oxo-4-(thiophen-2-yl)butan-2-ylidene)benzohydrazide]	18.8
O=C(C/C(=N/NC(=O)c1cc2ccccc2s1)C(F)(F)F)c1cccs1 [Compound 28, N′-(1,1,1-trifluoro-4-oxo-4-(thiophen-2-yl)butan-2-ylidene)benzo[b]thiophene-2-carbohydrazide]	19.4
C/C(CC(=O)N1CCC(c2ccccc2)CC1)=N\NC(=O)c1ccccc1O [Compound 29, 2-hydroxy-N′-(4-oxo-4-(4-phenylpiperidin-1-yl)butan-2-ylidene)benzohydrazide]	26.7

Results, then the compound that gave them:

IC50 [µM]	Compound
4.2	O=C(C/C(=N\NC(=O)c1ccccc1O)C(F)(F)F)c1ccco1 [Compound 1, 2-hydroxy-N′-(1,1,1-trifluoro-4-(furan-2-yl)-4-oxobutan-2-ylidene)benzohydrazide]
5.2	O=C(N/N=C(/CC(=O)N1CCN(Cc2ccccc2)CC1)C(F)(F)F)c1ccccc1O [Compound 3, N′-(4-(4-benzylpiperazin-1-yl)-1,1,1-trifluoro-4-oxobulan-2-ylidene)-2-hydroxy-benzohydrazide]
7.1	CN1CCN(C(=O)C/C(=N/NC(=O)c2ccccc2O)C(F)(F)F)CC1 [Compound 6, 2-hydroxy-N′-(1,1,1-trifluoro-4-(4-methylpiperazin-1-yl)-4-oxobutan-2-ylidene) benzohydrazide]
7.4	CC(C)(C)C(=O)C/C(=N/NC(=O)c1ccccc1O)C(F)(F)F [Compound 7, 2-hydroxy-N′-(1,1,1-trifluoro-5,5-dimethyl-4-oxohexan-2-ylidene)benzohydrazide]
8.3	Cc1ccc(C(=O)C/C(=N/NC(=O)c2sc3cc(F)ccc3c2Cl)C(F)(F)F)s1 [Compound 10, 3-chloro-6-fluoro-N′-(1,1,1-trifluoro-4-(5-methylthiophen-2-yl)-4-oxobutan-2-ylidene)benzo[b]thiophene-2-carbohydrazide]
9.1	Cc1ccc(C(=O)C/C(=N/NC(=O)c2ccccc2O)C(F)(F)F)s1 [Compound 13, 2-hydroxy-N′-(1,1,1-trifluoro-4-(5-methylthiophen-2-yl)-4-oxobutan-2-ylidene) benzohydrazide]
9.5	O=C(C/C(=N/NC(=O)c1sc2ccccc2c1Cl)C(F)(F)F)c1cccs1 [Compound 14, 3-chloro-N′-(1,1,1-trifluoro-4-oxo-4-(thiophen-2-yl)butan-2-ylidene)benzo[b]thiophene-2-carbohydrazide]
9.5	O=C(C/C(=N\NC(=O)c1sc2ccccc2c1Cl)C(F)(F)F)c1ccco1 [Compound 15, 3-chloro-N′-(1,1,1-trifluoro-4-(furan-2-yl)-4-oxobutan-2-ylidene)benzo[b]thiophene-2-carbohydrazide]
10.2	O=C(C/C(=N/NC(=O)c1sc2cc(F)ccc2c1Cl)C(F)(F)F)c1cc2ccccc2s1 [Compound 17, N′-(4-(benzo[b]thiophen-2-yl)-1,1,1-trifluoro-4-oxobutan-2-ylidene)-3-chloro-6-fluorobenzo[b] thiophene-2-carbohydrazide]
11.5	O=C(C/C(=N/NC(=O)c1ccccc1O)C(F)(F)F)c1ccc(Cl)s1 [Compound 19, N′-(4-(5-chlorothiophen-2-yl)-1,1,1-trifluoro-4-oxobutan-2-ylidene)-2-hydroxy benzohydrazide]
12.5	Cc1csc(C(=O)N/N=C(/CC(=O)c2cccs2)C(F)(F)F)c1Cl [Compound 21, 3-chloro-4-methyl-N′-(1,1,1-trifluoro-4-oxo-4-(thiophen-2-yl)butan-2-ylidene)thiophene-2-carbohydrazide]
16.1	O=C(C/C(=N/NC(=O)c1sc2cc(F)ccc2c1Cl)C(F)(F)F)c1cccs1 [Compound 24, 3-chloro-6-fluoro-N′-(1,1,1-trifluoro-4-oxo-4-(thiophen-2-yl)butan-2-ylidene)benzo[b]thiophene-2-carbohydrazide]
16.3	Cc1cccc(C(=O)N/N=C(/CC(=O)c2cccs2)C(F)(F)F)c1O [Compound 25, 2-hydroxy-3-methyl-N′-(1,1,1-trifluoro-4-oxo-4-(thiophen-2-yl)butan-2-ylidene)benzohydrazide]
